Legend:
[1] = test system: cerebrospinal fluid biomarkers of Alzheimer's disease pathology, neurodegeneration and neuroinflammation; test: Phase 2a clinical trial, cerebrospinal fluid and plasma biomarkers; format: in vivo, human
Source text: A small Phase 2a clinical trial that utilized a contemplated prognostic method along with other methodologies was first reported in the fall of 2019. The results of that trial were thereafter reported at Clinical Trials on Alzheimer's Disease (CTAD), December 4-7th, 2019 in San Diego, CA, and were published as Wang et al., J Prev Alzheimers Dis published 7 Feb. 2020. The use of the assay disclosed herein was neither shown nor discussed in that article.
(§1) Briefly, the study included 13 mild-to-moderate Alzheimer's disease patients, age 50-85, Mini Mental State Exam≥16 and ≤24 with a cerebrospinal fluid total tau/Aβ42 ratio […]. A pharmaceutical composition containing 100 mg of simufilam (PTI-125) in an orally administered tablet were given to the patients twice daily for 28 consecutive days. The study was conducted at five sites in the U.S. under an Investigational New Drug (IND) application.
Consistent with the drug's mechanism of action and preclinical data, the simufilam (PTI-125) reduced cerebrospinal fluid biomarkers of Alzheimer's disease pathology, neurodegeneration and neuroinflammation from baseline to Day 28.
Total tau, neurogranin, and neurofilament light chain decreased by 20%, 32% and 22%, respectively. Phospho-tau (pT181) decreased 34%, evidence that the compound suppresses tau hyperphosphorylation induced by Aβ42's signaling through α7-nicotinic acetylcholine receptor. Cerebrospinal fluid biomarkers of neuroinflammation (YKL-40 and inflammatory cytokines) decreased by 5-14%. Biomarker effects were similar in plasma.
This increase is consistent with the compound's 1,000-fold reduction of Aβ42's femtomolar binding affinity to α7-nicotinic acetylcholine receptor.

filamin A = molecular target: T1, filamin A (Homo sapiens, UniProt P21333); test: Phase 2a trial, target engagement in lymphocytes: filamin A conformation; format: in vivo
T1 construct: endogenous in cells; host or cells: patients' lymphocytes
T1 sequence (P21333 whole entry): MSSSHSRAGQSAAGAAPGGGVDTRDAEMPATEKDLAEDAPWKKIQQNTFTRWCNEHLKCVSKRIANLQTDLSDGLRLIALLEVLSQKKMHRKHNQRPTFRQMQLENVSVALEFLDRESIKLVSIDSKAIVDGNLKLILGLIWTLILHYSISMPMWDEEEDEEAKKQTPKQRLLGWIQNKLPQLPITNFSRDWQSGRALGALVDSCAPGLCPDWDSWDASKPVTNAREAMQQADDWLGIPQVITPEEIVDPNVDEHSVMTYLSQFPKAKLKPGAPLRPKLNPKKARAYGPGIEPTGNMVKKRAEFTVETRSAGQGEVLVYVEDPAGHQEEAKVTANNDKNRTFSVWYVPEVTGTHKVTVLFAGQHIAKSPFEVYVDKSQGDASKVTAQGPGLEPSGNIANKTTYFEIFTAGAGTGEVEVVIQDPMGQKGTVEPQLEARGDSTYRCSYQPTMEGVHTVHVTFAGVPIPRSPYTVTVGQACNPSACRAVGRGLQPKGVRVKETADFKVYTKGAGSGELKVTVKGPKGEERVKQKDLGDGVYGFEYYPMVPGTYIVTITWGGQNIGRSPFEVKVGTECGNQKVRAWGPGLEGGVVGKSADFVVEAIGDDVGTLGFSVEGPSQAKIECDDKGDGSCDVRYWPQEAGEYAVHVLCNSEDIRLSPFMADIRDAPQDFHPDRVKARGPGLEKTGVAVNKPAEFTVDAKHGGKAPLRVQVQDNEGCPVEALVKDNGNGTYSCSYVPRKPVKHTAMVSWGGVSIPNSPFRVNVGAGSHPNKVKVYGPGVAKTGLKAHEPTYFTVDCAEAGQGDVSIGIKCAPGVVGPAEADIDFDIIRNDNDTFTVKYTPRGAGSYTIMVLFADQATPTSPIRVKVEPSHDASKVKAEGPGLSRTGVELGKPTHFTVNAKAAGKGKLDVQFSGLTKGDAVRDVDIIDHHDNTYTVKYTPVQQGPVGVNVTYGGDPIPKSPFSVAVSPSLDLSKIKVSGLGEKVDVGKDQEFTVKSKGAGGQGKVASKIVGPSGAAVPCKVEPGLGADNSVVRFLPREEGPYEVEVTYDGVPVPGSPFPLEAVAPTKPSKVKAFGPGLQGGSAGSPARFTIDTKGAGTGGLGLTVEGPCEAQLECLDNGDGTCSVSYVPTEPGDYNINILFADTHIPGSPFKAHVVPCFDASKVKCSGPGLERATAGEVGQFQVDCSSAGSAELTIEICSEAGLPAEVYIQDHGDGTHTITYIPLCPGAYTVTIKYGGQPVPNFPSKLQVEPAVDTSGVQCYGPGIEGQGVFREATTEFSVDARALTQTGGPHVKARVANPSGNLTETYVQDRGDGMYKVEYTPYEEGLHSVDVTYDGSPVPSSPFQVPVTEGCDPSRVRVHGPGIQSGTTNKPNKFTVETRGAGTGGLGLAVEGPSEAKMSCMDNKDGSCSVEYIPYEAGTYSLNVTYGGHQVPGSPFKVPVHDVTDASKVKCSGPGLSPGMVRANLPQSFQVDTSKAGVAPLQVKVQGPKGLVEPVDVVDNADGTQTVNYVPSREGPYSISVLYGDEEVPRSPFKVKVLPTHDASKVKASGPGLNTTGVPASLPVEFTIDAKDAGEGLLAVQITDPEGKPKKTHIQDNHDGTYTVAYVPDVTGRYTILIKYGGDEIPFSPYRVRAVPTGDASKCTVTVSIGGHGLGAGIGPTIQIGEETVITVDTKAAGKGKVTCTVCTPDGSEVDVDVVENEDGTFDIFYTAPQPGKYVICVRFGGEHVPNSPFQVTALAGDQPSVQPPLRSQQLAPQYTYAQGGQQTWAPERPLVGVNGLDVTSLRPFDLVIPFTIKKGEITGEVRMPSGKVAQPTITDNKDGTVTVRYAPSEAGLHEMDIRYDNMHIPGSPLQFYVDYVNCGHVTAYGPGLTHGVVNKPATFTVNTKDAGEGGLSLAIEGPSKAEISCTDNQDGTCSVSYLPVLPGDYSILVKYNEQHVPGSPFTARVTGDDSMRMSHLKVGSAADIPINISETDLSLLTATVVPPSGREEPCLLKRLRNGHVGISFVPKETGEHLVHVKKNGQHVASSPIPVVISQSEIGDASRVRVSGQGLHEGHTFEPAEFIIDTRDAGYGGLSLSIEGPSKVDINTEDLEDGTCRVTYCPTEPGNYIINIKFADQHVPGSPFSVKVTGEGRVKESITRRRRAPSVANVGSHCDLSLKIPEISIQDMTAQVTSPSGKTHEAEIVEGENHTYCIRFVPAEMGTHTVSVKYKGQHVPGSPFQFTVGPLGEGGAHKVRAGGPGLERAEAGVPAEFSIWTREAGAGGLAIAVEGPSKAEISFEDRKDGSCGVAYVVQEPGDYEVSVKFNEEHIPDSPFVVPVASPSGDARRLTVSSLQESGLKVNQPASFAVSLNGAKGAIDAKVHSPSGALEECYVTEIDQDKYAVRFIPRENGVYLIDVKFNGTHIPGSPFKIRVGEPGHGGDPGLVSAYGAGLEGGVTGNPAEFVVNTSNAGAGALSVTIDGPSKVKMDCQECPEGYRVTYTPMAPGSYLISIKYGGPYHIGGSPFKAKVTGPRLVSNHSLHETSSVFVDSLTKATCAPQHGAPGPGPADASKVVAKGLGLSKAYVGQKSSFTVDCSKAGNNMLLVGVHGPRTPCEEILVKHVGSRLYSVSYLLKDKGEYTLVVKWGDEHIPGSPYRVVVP
Description: as §1
(§2) Biomarker reductions were at least p 0.001 by paired “t” test. Target engagement was shown in lymphocytes by a shift in filamin A's conformation from aberrant to native: 93% was aberrant on Day 1 vs. 40% on Day 28.

[2] = molecular target: T2, filamin A linkages with α7-nicotinic acetylcholine receptor (Homo sapiens, UniProt P21333); test: Phase 2a trial, filamin A linkage with α7-nicotinic acetylcholine receptor; format: in vivo; details: after 28 days of treatment
T2 construct: filamin A linkages with α7-nicotinic acetylcholine receptor and toll-like receptor 4; endogenous in cells; host or cells: patients' lymphocytes
Description: as §1, §2

[3] = molecular target: T3, filamin A linkages with toll-like receptor 4 (Homo sapiens, UniProt P21333); test: Phase 2a trial, filamin A linkage with toll-like receptor 4; format: in vivo; details: after 28 days of treatment
T3 construct: filamin A linkages with α7-nicotinic acetylcholine receptor and toll-like receptor 4; endogenous in cells; host or cells: patients' lymphocytes
Description: as §1, §2

[4] = test system: Aβ42 complexes with α7-nicotinic acetylcholine receptor; test: Phase 2a trial, Aβ42 complexes with α7-nicotinic acetylcholine receptor; format: in vivo, human; details: after 28 days of treatment
Description: as §1, §2

Aβ42 complexes with CD14 = test: Phase 2a trial, Aβ42 complexes with CD14; format: in vivo, human; details: after 28 days of treatment
Description: as §1, §2

[5] = Phase 2a trial, plasma pharmacokinetics; format: in vivo, human
Description: as §1

[6] = Phase 2a trial, safety and tolerability; format: in vivo, human; details: all patients, 100 mg twice daily for 28 days
Description: as §1

[7] = test system: about 90 kDa FLNA polypeptide fragment; test: Phase 2a trial, about 90 kDa FLNA polypeptide fragment in plasma; format: in vivo, human; details: group of 13 patients, P<0.01
Description: FIG. 13 is a graph showing the amounts in arbitrary units of the about 90 kDa FLNA polypeptide fragment found in the plasma of 13 AD patients in a Phase 2a clinical trial who were treated with a medicament twice daily for 28 days and had their blood plasma assayed on days 0, 14 and 28 for the presence and amount of the about 90 kDa FLNA polypeptide fragment.
as §1
An assay for the presence and amount of the about 90 kDa FLNA polypeptide fragment in the plasma of each patient was also separately determined on days 0, 14 and 28 of the trial. […] Those results are shown graphically in FIG. 13 and indicate that the treatment appeared to be effective and was in agreement with the more standard assays.

[8] = molecular target: α7-nicotinic acetylcholine receptor (Homo sapiens, UniProt P36544); details: cited from earlier work
Chain of α7-nicotinic acetylcholine receptor (P36544 23-502): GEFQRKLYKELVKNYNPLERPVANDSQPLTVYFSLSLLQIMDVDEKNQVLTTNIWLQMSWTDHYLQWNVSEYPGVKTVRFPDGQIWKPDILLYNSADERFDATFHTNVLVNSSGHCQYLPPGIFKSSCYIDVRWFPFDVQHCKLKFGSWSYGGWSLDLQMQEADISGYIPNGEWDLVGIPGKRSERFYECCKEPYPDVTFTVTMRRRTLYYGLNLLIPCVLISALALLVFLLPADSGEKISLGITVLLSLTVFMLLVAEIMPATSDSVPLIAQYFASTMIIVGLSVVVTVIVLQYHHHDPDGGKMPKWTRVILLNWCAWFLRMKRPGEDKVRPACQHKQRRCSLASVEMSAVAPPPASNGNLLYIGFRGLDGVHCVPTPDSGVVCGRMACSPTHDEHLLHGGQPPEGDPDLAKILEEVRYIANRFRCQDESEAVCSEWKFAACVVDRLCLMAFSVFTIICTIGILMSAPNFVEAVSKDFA

[9] = molecular target: FLNA association with toll-like receptor 4 (TLR4) (Homo sapiens, UniProt P21333); details: Wang et al., J. Neurosci. 2012; cited from earlier work
cytokine release = details: Wang et al., J. Neurosci. 2012; cited from earlier work
[10] = test system: prefrontal cortex and hippocampus brain slices; test: Ex vivo organotypic brain slice culture with Aβ42 exposure; format: cell-based; details: rat brain slices, serum-deprived, 100 μM Aβ1-42
Description: We hypothesize that the 90-kDa pS^2152FLNA fragment is derived from degenerated and ruptured neurons in the brain.
Using two brain regions known to be vulnerable to AD damage, 200-μm sections of prefrontal cortex and hippocampus were prepared from 10-week-old rats. These brain slices were cultured as described previously (Wang et al., above) for 4 days to permit recovery of slice preparation damage. These slices were then serum-deprived and incubated with 100 μM Aβ1-42 (Aβ42).
The presence of the 90-kDa pS^2152-FLNA fragments and pS^2152-FLNA protein, as well as other biomarkers that reflect neuronal destruction, nitrated tau (nY^29-tau) and glial damage [truncated glial fibrillary acidic protein (GFAP)] in the culture medium were assessed by Western blotting. The specificity of Aβ42 was defined by Aβ421, an intrareversal peptide.
The 90-kDa pS^2152-FLNA fragment, but not full-length (280-kDa) pS^2152-FLNA protein, appears in the medium starting at 4 hours post-Aβ42 addition and steadily increases over time. […] In addition, full-length GFAP, followed by its truncated form, appears early following Aβ1-42 exposure.

[11] = cerebrospinal fluid, baseline to Day 28, 100 mg twice daily

In the case of `CN1CCC2(CC1)NCC(=O)N2Cc1ccccc1` [simufilam], the Biomarker response ([1]; 13 mild-to-moderate AD patients, 100 mg oral tablet twice daily for 28 days, baseline to Day 28) is reported as “All patients showed a biomarker response”, the Aβ42 change ([1]; baseline to Day 28, 100 mg twice daily) is reported as “increased slightly” and the “Cerebrospinal fluid biomarkers of neuroinflammation (YKL-40 and inflammatory cytokines) decrease” value [1, 11] is reported as 5-14%. The “Neurofilament light chain decrease” value [1, 11] was 22%, the Neurogranin decrease [1, 11] was 32% and the “Phospho-tau (pT181) decrease” value [1, 11] was 34%. The Total tau decrease [1, 11] was 20%, the “Biomarker effects in plasma” value ([1]; plasma compared with cerebrospinal fluid) was “similar” and the “Aberrant filamin A conformation” value (filamin A; Day 1) was 93%. For the same compound, the “Aberrant filamin A conformation” value (filamin A; Day 28) was 40%, the “Filamin A linkages with α7-nicotinic acetylcholine receptor” value [2] was “significantly reduced” and the “Filamin A linkages with toll-like receptor 4” value [3] was “significantly reduced”. The “Aβ42 complexes with α7-nicotinic acetylcholine receptor” value [4] was “significantly reduced”, the “Aβ42 complexes with CD14” value (Aβ42 complexes with CD14) was “significantly reduced” and the Drug accumulation ([5]; Day 28 vs. Day 1) was “approximately 30%”. For the same compound, the half-life ([5]; human, plasma, AD patients, 100 mg oral twice daily) was 4.5 h, the Safety and tolerability [6] was “safe and well-tolerated” and the “Amount of the 90 kDa FLNA polypeptide fragment in the plasma” value ([7]; 14 days into the trial) was “decrease”. The “Amount of the 90 kDa FLNA polypeptide fragment in the plasma” value ([7]; 28 days into the trial) was “decrease”, the “Reduction of Aβ42's femtomolar binding affinity to α7-nicotinic acetylcholine receptor” value [8] was 1,000 fold and the “FLNA association with toll-like receptor 4 (TLR4)” value [9] was “reducing”. The Cytokine release (cytokine release) was “preventing”.
With “Aβ42: amyloid-beta peptide generated by cleavage of amyloid precursor protein; used to induce AD-like damage in brain slices” the “Time of first appearance of 90-kDa pS2152-FLNA fragment in the medium post-Aβ42 addition” value [10] was 4 hours.

From US20240329056A1, “COMPONENT ASSAY FOR ALZHEIMER'S DISEASE IN A LIVING SUBJECT” (CASSAVA SCIENCES, INC., priority 2021, published 2024)
